Key:
Test in all cases: Kinase inhibitor library screening, PrestoBlue cell viability, 1 or 10 μM, 72 h
[1] = system: 501Mel cells (parental); conditions: 501Mel Parental, 72 h; for cell viability, 501Mel Parental, 1μΜ / cell viability, 501Mel Parental, 10μΜ: in %
How it was run: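 Readout: PrestoBlue signal on a monochromator plate reader, given as percent viability relative to untreated controls. Parental and drug-resistant (Vemurafenib XP, Dabrafenib GP) sublines were tested; at least duplicates per line.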

[2] = system: 501Mel-GP cells (Dabrafenib-resistant); conditions: 501Mel GP, 72 h; for cell viability, 501Mel GP, 1μΜ / cell viability, 501Mel GP, 10μΜ: in %
[3] = system: 501Mel-XP cells (Vemurafenib-resistant); conditions: 501Mel XP, 72 h; for cell viability, 501Mel XP, 1μΜ / cell viability, 501Mel XP, 10μΜ: in %
[4] = system: A375 cells (parental); conditions: A375 Parental, 72 h
[5] = system: A375-GP cells (Dabrafenib-resistant); conditions: A375 GP, 72 h; for cell viability, A375 GP, 1μΜ / cell viability, A375 GP, 10μΜ: in %
[6] = system: A375-XP cells (Vemurafenib-resistant); conditions: A375 XP, 72 h; for cell viability, A375 XP, 1μΜ / cell viability, A375 XP, 10μΜ: in %
[7] = system: IGR37 cells (parental); conditions: IGR37 Parental, 72 h; for cell viability, IGR37 Parental, 1μΜ / cell viability, IGR37 Parental, 10μΜ: in %
[8] = system: IGR37-GP cells (Dabrafenib-resistant); conditions: IGR37 GP, 72 h; for cell viability, IGR37 GP, 1μΜ: in %
[9] = system: IGR37-XP cells (Vemurafenib-resistant); conditions: IGR37 XP, 72 h; for cell viability, IGR37 XP, 1μΜ: in %

SMILES	cell viability, 501Mel Parental, 1μΜ ([1]; 1μΜ)	cell viability, 501Mel Parental, 10μΜ ([1]; 10μΜ)	cell viability, 501Mel GP, 1μΜ [2]	cell viability, 501Mel GP, 10μΜ ([2]; 10μΜ)	cell viability, 501Mel XP, 1μΜ ([3]; 1μΜ)	cell viability, 501Mel XP, 10μΜ ([3]; 10μΜ)	cell viability, A375 Parental, 10μΜ ([4]; 10μΜ, in %)	cell viability, A375 GP, 1μΜ ([5]; 1μΜ)	cell viability, A375 GP, 10μΜ ([5]; 10μΜ)	cell viability, A375 XP, 1μΜ ([6]; 1μΜ)	cell viability, A375 XP, 10μΜ ([6]; 10μΜ)	cell viability, IGR37 Parental, 1μΜ ([7]; 1μΜ)	cell viability, IGR37 Parental, 10μΜ ([7]; 10μΜ)	cell viability, IGR37 GP, 10μΜ ([8]; 10μΜ)	cell viability, IGR37 GP, 1μΜ ([8]; 1μΜ)	cell viability, IGR37 XP, 10μΜ ([9]; 10μΜ)	cell viability, IGR37 XP, 1μΜ ([9]; 1μΜ)	also measured
CCn1cc(-c2ccnc3[nH]c(-c4cccc(CN(C)C)c4)cc23)c(-c2ccc(NC(=O)N(C)C)cc2)n1 [GSK1070916]																		cell viability (kinase inhibitor library screening) ([1]; 1μΜ): 94.0%; cell viability (kinase inhibitor library screening) ([1]; 10μΜ): 36.8%; cell viability (kinase inhibitor library screening) ([2]; 10μΜ): 50.8%; cell viability (kinase inhibitor library screening) ([3]; 1μΜ): 90.5%; cell viability (kinase inhibitor library screening) ([3]; 10μΜ): 18.1%; cell viability (kinase inhibitor library screening) ([4]; 10μΜ): 36.0%; cell viability (kinase inhibitor library screening) ([4]; 1μΜ): 53.8%; cell viability (kinase inhibitor library screening) ([5]; 1μΜ): 47.6%; cell viability (kinase inhibitor library screening) ([5]; 10μΜ): 34.9%; cell viability (kinase inhibitor library screening) ([6]; 1μΜ): 57.6%; cell viability (kinase inhibitor library screening) ([6]; 10μΜ): 37.9%; cell viability (kinase inhibitor library screening) ([7]; 1μΜ): 94.1%; cell viability (kinase inhibitor library screening) ([7]; 10μΜ): 85.3%; cell viability (kinase inhibitor library screening) ([8]; 1μΜ): 98.0%; cell viability (kinase inhibitor library screening) ([8]; 10μΜ): 46.1%; cell viability (kinase inhibitor library screening) ([9]; 1μΜ): 88.9%; cell viability (kinase inhibitor library screening) ([9]; 10μΜ): 7.5%
CC(=O)Nc1cccc(-n2c(=O)n(C3CC3)c(=O)c3c(Nc4ccc(I)cc4F)n(C)c(=O)c(C)c32)c1 [GSK1120212 (Trametinib)]	55.4	64.9	90.4	77.4	75.6	62.1	21.8	18.8	16.2	14.9	14.6	37.2	36.1	56.9%	89.3	22.1%	38.3	cell viability, A375 Parental, 1μΜ ([4]; 1μΜ, in %): 21.7
CCc1cc(Nc2nccc(-c3c(-c4ccc(OC)c(C(=O)Nc5c(F)cccc5F)c4)nc4ccccn34)n2)c(OC)cc1N1CCC(N2CCN(S(C)(=O)=O)CC2)CC1 [GSK1904529A]	99.4	98.3	109.2	89.5	93.0	82.3	94.0	98.4	92.6	104.6	97.7	114.5	96.7	62.6%	98.3	20.4%	98.9	

Source: article PMC6364417, “Kinase inhibitor library screening identifies synergistic drug combinations effective in sensitive and resistant melanoma cells” (Journal of Experimental & Clinical Cancer Research : CR, 2019)
